Laboratory results taken from patent US5561042A, “Diamine platinum naphthalimide complexes as antitumor agents” (Cancer Therapy and Research Center, priority 1995, dated 1996).
pIC50: −log10 of the molar value. “Also recorded” adds a separate entry of the source.

Columns and labels:
B16 murine melanoma = assay: B16 melanoma in vivo, survival of B6D2F1 mice; settings: for T/C: mean survival treated/control
Experimental: B6D2F1 mice received i.p. inocula of B16 murine melanoma brei prepared from B16 tumors growing subcutaneously in mice (day 0). On day 1, rumored mice were treated with drugs or vehicle control; the route of drug administration and schedule were selected as appropriate for the study in question. If dosing information for agents was not available, the maximum tolerated dose (MTD) was determined in initial dose finding experiments in non-tumored mice. In a typical experiment, drugs were given at their MTD and 1/2 MTD doses i.p. on a daily×5 schedule.
The mean survival times of all groups were calculated, and results were expressed as mean survival of treated mice/mean survival of control mice (T/C)×100%. A T/C value of 150 means that the mice in the treated group lived 50% longer than those of the control group; this is sometimes referred to as the increase in life space, or ILS value.
Mice that survived for 60 days were considered long term survivors, or cures, in the B16 model. The universally accepted cut-off for activity in this model, which has been used for years by the National Cancer Institute, is T/C=125.
Statistics were performed on the data using primarily the log rank p-value test.

DNA = assay: Ethidium bromide displacement, DNA binding in general
Experimental: (§1) The binding of the bis-naphthalimides to DNA and to synthetic polynucleotide duplexes was determined by an ethidium bromide displacement assay that measures the reduction of fluorescence when ethidium bromide is displaced from DNA (Baguley, 1981). The fluorescence intensity of a 3 ml solution containing 9.3 mM NaCl, 2 mM Tris-HCl (pH 7.0), 100 μM EDTA, 1 μM DNA (in nucleotides) and 1.26 μM ethidium bromide in a quartz cuvette was measured at the excitation (546 nm) and emission (600 nm) wavelengths on a Shimadzu RF5000U spectrofluorometer. Graded concentrations of agent were then added and the fluorescence intensity was measured. The concentration of compound required to reduce the fluorescence intensity by 50% of that of control (FI50) was determined. Therefore, the lower the FI50 the stronger the binding affinity a particular compound has for DNA.
The ability of bis-naphthalimides of the present invention and the known anti-cancer agents compound 22 and DMP840, (R,R)-2,2'[1,2-ethanediylbis[imino(1-methyl-2,1-ethanediyl)]]-bis[5-nitro- 1H benz[de]isoquinoline-1,3-(2H)dione]dimethanesulfonate, to bind to DNA and to synthetic oligonucleotide duplexes was measured using an ethidium bromide displacement assay. Ethidium bromide, a known DNA intercalator, has no fluorescence in the absence of DNA; however, fluorescence intensity increases when ethidium bromide binds to DNA. […]

Lambda DNA = assay: Ethidium bromide displacement, lambda DNA; type: binding; settings: 1 μM DNA, 1.26 μM ethidium bromide, pH 7.0, read-out: FI50, Lambda DNA
Experimental: (§2) A 10× Binding solution was prepared by combining 0.93 ml of an aqueous NaCl solution (5M), 2.0 ml of an aqueous Tris HCl (500 mM) solution, 0.1 ml of an EDTA solution (500 mM) and 46.97 ml of water. The resultant solution was 93 mM in NaCl, 20 mM in Tris HCl, and 1 mM in EDTA. Stock DNA solution were prepared as follows: Poly (dG·dC)-(dG·dC) (ε254=8.4/mM; 27-7910-02), poly(dA·dT)-(dA·dT) (ε262=6.6/mM; 27-7870-02), and lambda DNA (ε260-7.0/mM; 27-4111-01) were purchased from Pharmacia. Solutions were prepared by resuspending either poly (dG·dC)-(dG·dC) or poly(dA·dT)-(dA·dT)in 1 ml of 10× DNA Binding Solution. Lambda DNA is already in solution as purchased.
(§3) Poly (dG·dC)-(dG·dC), poly(dA·dt)-(dA·dt) and lambda DNA concentrations were determined as follows: 980 μl of 10× DNA Binding Solution was pipetted into a 1 ml cuvette. A blank was run on the UV spectrophotometer. 20 μl of the DNA stock of unknown concentration was then added into the cuvette. The sample was then scanned between 210 nm to 500 nm and the absorbance recorded at 254 nm for poly(dG·dC)-(dG·dC), at 262 nm for poly(dA·dT)-(dA·dT) and at 260 nm for lambda DNA. The solution was transferred to a clean tube. This procedure was followed for three different solutions with the absorbance taken as the average of the three. The concentration of poly(dG·dC)-(dG·dC) stock was calculated to be A254 /8.4×1000 (in μM). The concentration of poly(dA·dT)-(dA·dT) stock was calculated to be A262 /6.6×1000 (in μM). The concentration of lambda DNA stock was calculated to be A260 /7.0×1000 (in μM).
as §1
(§4) The ability of bis-naphthalimides of the present invention and the known anti-cancer agents compound 22 and DMP840, (R,R)-2,2'[1,2-ethanediylbis[imino(1-methyl-2,1-ethanediyl)]]-bis[5-nitro- 1H benz[de]isoquinoline-1,3-(2H)dione]dimethanesulfonate, to bind to DNA and to synthetic oligonucleotide duplexes was measured using an ethidium bromide displacement assay. Ethidium bromide, a known DNA intercalator, has no fluorescence in the absence of DNA; however, fluorescence intensity increases when ethidium bromide binds to DNA. The ethidium bromide displacement assay measures the decrease in fluorescence intensity caused by DNA-bound ethidium bromide with DNA interacting agents.

[1] = tested on: P388 murine leukemic cell line; assay: In vitro growth inhibition (MTT), P388 leukemia; type: cell-based; settings: 3 days
Source text: (§5) P388 murine leukemic cell line was obtained from the DCT Tumor Repository (National Cancer Institute, Frederick Cancer Research and Development, Frederick Md. 21702). HT29 Human Colon Carcinoma cell line was obtained from the American Type Culture Collection (12301 Parklawn Drive, Rockville, Md. 20852). B16 Melanoma cell line was obtained from DuPont Merck Pharmaceutical Company (Glenolden, Pa. 19036). MCF-7 Human Breast Carcinoma cell line was a gift from Dr. K. Osborne (Department of Medicine, The University of Texas Health Science Center at San Antonio, San Antonio, Tex. 78284). All cell lines were incubated at 37° C. in a humidified atmosphere of 5% CO2 -95% air. Murine B16 melanoma cell line was grown in RPMI 1640 medium supplemented with 10% heat-inactivated fetal bovine serum, 2 mM L-glutamine, 50 units/ml penicillin, 50 μg/ml streptomycin, 25 μg/ml gentamycin, 0.75% sodium bicarbonate, 10 mM HEPES buffer (pH 7.4), and 0.06 mg/ml AntiPPLO. Murine P388 leukemic and the human HT-29 colon adenocarcinoma cell lines were maintained in RPMI 1640 medium supplemented with 10% heat-inactivated fetal bovine serum. MCF-7M human breast adenocarcinoma was maintained in IMEM medium supplemented with 5% non heat-inactivated fetal bovine serum and 1 nM insulin.
(§6) Exponentially growing cells (1-2×10^3 cells, unless specified otherwise) in 0.1 ml medium were seeded on day 0 in a 96-well microtiter plate. On day 1, 0.1 ml aliquots of medium containing graded concentrations of test compounds were added in duplicate to the cell plates. After incubation at 37° C. in a humidified incubator for 3 days (P388, B16) or 6 days (HT-29, MCF-7M), the plates were centrifuged briefly and 100 μl of the growth medium was removed. Cell cultures were incubated with 50 μl of 3-(4,5-dimethylthiazol-2-yl)-2,5-diphenyl-tetrazolium bromide [MTT, 1 mg/ml in Dulbecco's phosphate buffered saline (PBS)] for 4 hr at 37° C. The resulting purple formazan precipitate was solubilized with 200 μl of 0.04N HCl in isopropyl alcohol. Absorbance was monitored in a BioRad Model 3550 Microplate Reader at a test wavelength of 570 nm and a reference wavelength of 630 nm. The absorbance was transferred to a PC 486 computer. The IC50 values were determined by a computer program (EZ-ED50) that fit all of the data to the following four-parameterlogistic equation:
(§7) Y=((Am -Ao)/(1+(X/IC50)^n))+Ao
(§8) where Am is the absorbance of control cells, Ao is the absorbance of cells in the presence of highest agent concentration, Y is the observed absorbance, X is the agent concentration, IC50 is the concentration of agent that inhibits the cell growth by 50% of control cells (based on the absorbance) and n is the slope of the curve.

[2] = tested on: MCF-7 Human Breast Carcinoma cell line; assay: In vitro growth inhibition (MTT), MCF-7 breast carcinoma; type: cell-based; settings: 6 days
Source text: as §5, §6, §7, §8

[3] = tested on: poly (dG.dC) - poly (dG.dC); assay: Ethidium bromide displacement, poly(dG.dC)-poly(dG.dC); type: binding; settings: for Ratio (AT/GC): FI50 poly(dA.dT)-poly(dA.dT) / FI50 poly(dG.dC)-poly(dG.dC); for pIC50: ethidium bromide displacement, 1 μM DNA, 1.26 μM ethidium bromide, pH 7.0, read-out: FI50, poly (dG.dC) - poly (dG.dC)
Experimental: as §2, §3, §1, §4

[4] = molecular target: poly (dA.dT) - poly (dA.dT); assay: Ethidium bromide displacement, poly(dA.dT)-poly(dA.dT); type: binding; settings: 1 μM DNA, 1.26 μM ethidium bromide, pH 7.0, read-out: FI50, poly (dA.dT) - poly (dA.dT)
Experimental: as §2, §3, §1, §4

[5] = tested on: Murine B16 melanoma cell line; assay: In vitro growth inhibition (MTT), B16 melanoma; type: cell-based; settings: MTT, 3 days
Source text: as §5, §6, §7, §8

[6] = tested on: HT29 Human Colon Carcinoma cell line; assay: In vitro growth inhibition (MTT), HT29 colon carcinoma; type: cell-based; settings: 6 days
Source text: as §5, §6, §7, §8

SMILES | pIC50 (Lambda DNA) | pIC50 ([1]; Mus musculus, P388, 72 h) | Ratio (AT/GC) [3] | pIC50 [3] | pIC50 [4] | pIC50 [2] | pIC50 [6] | pIC50 [5] | further results
O=C1c2cccc3cc([N+](=O)[O-])cc(c23)C(=O)N1CCNCCOCCN1C(=O)c2cccc3cc([N+](=O)[O-])cc(c23)C1=O [Compound 6] |  |  |  |  |  |  |  |  | 60-Day Survivors (B16 murine melanoma; 15 mg/kg, q.d. × 5, i.p.): 0; Wt. Ch. (%) (Day 7) (B16 murine melanoma; 15 mg/kg, q.d. × 5, i.p.): -7.4%; T/C (B16 murine melanoma; 15 mg/kg, q.d. × 5, i.p.): 210%; 60-Day Survivors (B16 murine melanoma; 30 mg/kg, q.d. × 5, i.p.): 0; Wt. Ch. (%) (Day 7) (B16 murine melanoma; 30 mg/kg, q.d. × 5, i.p.): -16.4%; T/C (B16 murine melanoma; 30 mg/kg, q.d. × 5, i.p.): 233%; activity against B16 melanoma in vivo (in words) (B16 murine melanoma; mouse, in vivo): potent activity against B16 melanoma in vivo; also recorded: remarkable activity; also recorded: more active in this model than DMP840, compounds 22 and 23, and cytoxan; also recorded: more effective against B16 melanoma compared with DMP840; DNA binding (in words) (DNA): dose-dependent decrease in fluorescence intensity
O=C1c2cccc3cc([N+](=O)[O-])cc(c23)C(=O)N1CCNCCSCCN1C(=O)c2cccc3cc([N+](=O)[O-])cc(c23)C1=O [Compound 10, 5-[2-(3-Nitronaphthalene-1,8-dicarboximido)ethylamino]-1-(3-nitronaphthalene-1,8-dicarboximido)-3-thiopentane] | 5.13 | 7.25 | 22.3 | 6.11 | 4.76 |  |  |  | pIC50 ([2]; Homo sapiens, MCF7, 144 h): 8.05; pIC50 ([5]; Mus musculus, B16, 72 h): 7.48
O=C1c2cccc3cc([N+](=O)[O-])cc(c23)C(=O)N1CCNCC[S+]([O-])CCN1C(=O)c2cccc3cc([N+](=O)[O-])cc(c23)C1=O (stereo not shown) [Compound 12] | 6.77 | 8.05 | 51.06 | 6.90 | 5.19 | 8.80 | 8.77 | 8.20 | 
O=C1c2cccc3cc([N+](=O)[O-])cc(c23)C(=O)N1CCNCC[S+]([O-])CCN1C(=O)c2cccc3cc([N+](=O)[O-])cc(c23)C1=O (stereo not shown) [Compound 13] | 6.74 |  | 212.6 | 7.74 | 5.41 | > 10.00 | 9.70 | 8.80 | pIC50 [1]: > 8.30
O=C1c2cccc3cc([N+](=O)[O-])cc(c23)C(=O)N1CCNCCS(=O)(=O)CCN1C(=O)c2cccc3cc([N+](=O)[O-])cc(c23)C1=O [Compound 14] | 4.62 | 7.57 | 64.38 | 6.17 | 4.36 | 6.88 |  | 7.07 | pIC50 ([6]; Homo sapiens, HT-29, 144 h): 7.36
O=C1c2cccc3cc([N+](=O)[O-])cc(c23)C(=O)N1CCNCCS(=O)(=O)CCN1C(=O)c2cccc3cc([N+](=O)[O-])cc(c23)C1=O [Compound 15, 5-[2-(3-Nitronaphthalene-1,8-dicarboximido)ethylamino]-1-(3-nitronaphthalene-1,8-dicarboximido)-3-sulfonylpentane hydromethanesulfonate] | 5.99 |  | 144.4 | 6.93 | 4.77 | 7.44 | 7.66 | 7.47 | pIC50 [1]: 7.52
O=C1c2cccc3cc([N+](=O)[O-])cc(c23)C(=O)N1CCNCCNCCN1C(=O)c2cccc3cc([N+](=O)[O-])cc(c23)C1=O [Compound 22, 2,2'[1,2-ethanediylbis[imino(2,1-ethanediyl)]]-bis[5-nitro-1H-benz[de]isoquinoline-1,3-(2H)-dione]dimethanesulfonate] |  |  | 16.5 |  |  |  |  |  | 60-Day Survivors (B16 murine melanoma; 2.5 mg/kg, q.d. × 5, i.p.): 0; Wt. Ch. (%) (Day 7) (B16 murine melanoma; 2.5 mg/kg, q.d. × 5, i.p.): -0.17%; T/C (B16 murine melanoma; 2.5 mg/kg, q.d. × 5, i.p.): 141%
O=C1c2cccc3cc([N+](=O)[O-])cc(c23)C(=O)N1CCNCCNCCN1C(=O)c2cccc3cc([N+](=O)[O-])cc(c23)C1=O [Compound 23, 2,2'[1,2-ethanediylbis[imino(2,1-ethanediyl)]]-bis[5-nitro-1H-benz[de]isoquinoline-1,3-(2H)-dione]] |  |  |  |  |  |  |  |  | 60-Day Survivors (B16 murine melanoma; 2.5 mg/kg, q.d. × 5, i.p.): 0; Wt. Ch. (%) (Day 7) (B16 murine melanoma; 2.5 mg/kg, q.d. × 5, i.p.): 0.95%; T/C (B16 murine melanoma; 2.5 mg/kg, q.d. × 5, i.p.): 162%
O=P1(N(CCCl)CCCl)NCCCO1 (stereo not shown) [Cytoxan] |  |  |  |  |  |  |  |  | 60-Day Survivors (B16 murine melanoma; 150 mg/kg, q.d. × 5, i.p.): 0; Wt. Ch. (%) (Day 7) (B16 murine melanoma; 150 mg/kg, q.d. × 5, i.p.): -12.2%; T/C (B16 murine melanoma; 150 mg/kg, q.d. × 5, i.p.): 175%; 60-Day Survivors (B16 murine melanoma; 300 mg/kg, q.d. × 1, i.p.): 0; Wt. Ch. (%) (Day 7) (B16 murine melanoma; 300 mg/kg, q.d. × 1, i.p.): -6.6%; T/C (B16 murine melanoma; 300 mg/kg, q.d. × 1, i.p.): 197%; highest effective dose (B16 murine melanoma; mouse, in vivo): 300 mg/kg
